Laboratory results taken from patent publication US8846909B2, “Bicyclic heteroaryl kinase inhibitors and methods of use” (University of Rochester, priority 2010, dated 2014).

Tests used:
[1] = tested on: primary rat hippocampal neurons and dorsal root ganglion neurons; conditions: cited from earlier work
[2] = target: T1, MLK3 (Rattus norvegicus, UniProt Q66HA1); conditions: primary rat neurons; cited from earlier work
T1 construct: autophosphorylation of MLK3 in primary rat neurons; endogenous in cells; host or cells: primary rat neurons

[3] = tested on: in vivo model of HIV-1 infection; conditions: reversing microglial activation, restoring normal synaptic architecture; cited from earlier work
[4] = target: T2, MLK3 (Homo sapiens, UniProt Q16584); assay: Radiometric filter plate MLK3 assay; format: biochemical; conditions: read-out: MK3 IC50; note: 2 µM cold ATP (Km)
T2 construct: purchased Dundee DU8313
Method: After a twenty minute incubation, the reactions were washed through filter plates and read on a scintillation counter. Results are shown in Table 10 below, in which +++ indicates ≦0.1 μM, ++ indicates >0.1 μM and ≦1 μM, and + indicates >1 μM.

[5] = Pharmacokinetic evaluation in mice (plasma and brain AUC); format: in vivo; parameters: unit not given here; conditions: CL57 BL/6 mice, single IV injection 10 mg/kg, brain homogenate
Method: Several compounds disclosed herein were evaluated in a standard murine pharmacokinetic model. […] Three mice in each group were used for blood and brain collection at each time point. […] The brain of each animal was collected after the final blood collection. The whole tissue was harvested, excised and rinsed by saline, dried by filter paper, and then placed into one tube per tissue per animal. All samples were stored at −20° C. until bioanalysis. Compound concentrations in plasma and brain homogenate were determined using a high performance liquid chromatography/mass spectrometry (HPLC/MS/MS) method (Agilent 1100 series HPLC, AB Inc. API4000 triple-quadrupole with an ESI interface and Analyst 1.4 software). Results in the form of area under the time-versus-concentration curve (AUC) are given below in Table 11.

T2 sequence (Q16584 whole entry): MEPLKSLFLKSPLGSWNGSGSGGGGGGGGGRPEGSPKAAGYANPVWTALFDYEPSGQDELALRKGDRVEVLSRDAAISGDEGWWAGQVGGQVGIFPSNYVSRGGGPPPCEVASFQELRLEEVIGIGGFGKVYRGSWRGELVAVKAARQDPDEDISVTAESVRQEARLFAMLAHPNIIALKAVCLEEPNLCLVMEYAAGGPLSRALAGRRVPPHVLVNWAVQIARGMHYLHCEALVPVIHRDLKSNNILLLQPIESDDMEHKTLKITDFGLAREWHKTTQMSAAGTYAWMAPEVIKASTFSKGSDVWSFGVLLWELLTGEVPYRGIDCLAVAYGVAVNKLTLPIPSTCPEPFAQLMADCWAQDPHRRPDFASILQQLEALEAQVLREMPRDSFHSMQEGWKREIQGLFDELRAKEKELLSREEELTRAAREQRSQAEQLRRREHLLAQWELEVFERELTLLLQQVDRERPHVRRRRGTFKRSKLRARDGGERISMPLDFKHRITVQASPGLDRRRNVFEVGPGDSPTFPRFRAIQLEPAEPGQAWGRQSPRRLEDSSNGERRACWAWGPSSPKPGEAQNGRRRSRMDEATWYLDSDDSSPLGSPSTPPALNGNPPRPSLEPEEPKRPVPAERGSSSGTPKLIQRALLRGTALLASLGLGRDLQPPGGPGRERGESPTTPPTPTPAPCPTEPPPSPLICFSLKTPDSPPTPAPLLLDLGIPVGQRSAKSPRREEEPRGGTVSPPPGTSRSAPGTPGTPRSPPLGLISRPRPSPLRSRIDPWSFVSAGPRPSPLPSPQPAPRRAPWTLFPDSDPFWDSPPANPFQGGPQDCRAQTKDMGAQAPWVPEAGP
T1 sequence (Q66HA1 whole entry): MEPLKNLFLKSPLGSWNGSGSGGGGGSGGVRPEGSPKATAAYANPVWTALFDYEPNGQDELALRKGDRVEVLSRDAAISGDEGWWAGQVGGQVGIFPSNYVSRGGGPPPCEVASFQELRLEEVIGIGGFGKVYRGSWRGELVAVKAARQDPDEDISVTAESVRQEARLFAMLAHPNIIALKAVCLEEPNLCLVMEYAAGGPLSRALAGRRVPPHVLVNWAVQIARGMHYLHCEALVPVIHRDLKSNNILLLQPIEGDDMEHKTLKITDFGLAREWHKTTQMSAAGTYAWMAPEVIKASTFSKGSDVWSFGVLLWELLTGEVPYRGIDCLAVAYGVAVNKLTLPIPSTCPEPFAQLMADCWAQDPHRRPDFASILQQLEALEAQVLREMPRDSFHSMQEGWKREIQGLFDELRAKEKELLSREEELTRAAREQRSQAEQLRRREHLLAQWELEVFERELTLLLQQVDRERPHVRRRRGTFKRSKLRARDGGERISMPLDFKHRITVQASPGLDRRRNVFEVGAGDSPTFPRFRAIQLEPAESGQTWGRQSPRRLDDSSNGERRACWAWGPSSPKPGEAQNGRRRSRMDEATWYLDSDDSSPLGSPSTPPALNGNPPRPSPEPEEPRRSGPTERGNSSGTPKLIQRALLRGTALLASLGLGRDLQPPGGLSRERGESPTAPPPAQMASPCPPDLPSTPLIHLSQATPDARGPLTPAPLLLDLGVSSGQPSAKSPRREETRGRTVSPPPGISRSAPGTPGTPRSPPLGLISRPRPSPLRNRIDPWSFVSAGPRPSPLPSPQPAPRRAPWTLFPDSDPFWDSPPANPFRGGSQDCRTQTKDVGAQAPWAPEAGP

| SMILES | protection of neurons from lethal effects of HIV-1 gp120 [1] | Tat and gp120 induced autophosphorylation of MLK3 [2] | neuroprotection in in vivo model of HIV-1 infection [3] | IC50 [4] [nM] | AUC Brain [5] |
| --- | --- | --- | --- | --- | --- |
| CCSCc1ccc2c(c1)c1c3c(c4c5cc(CSCC)ccc5n5c4c1n2[C@H]1C[C@](O)(C(=O)OC)[C@]5(C)O1)CNC3=O [CEP1347] | can protect | abolished | neuroprotective | – | – |
| Nc1ccc(-c2cnc3[nH]cc(-c4ccc5[nH]ccc5c4)c3c2)cn1 [Example 4, 5-(3-(1H-indol-5-yl)-1H-pyrrolo[2,3-b]pyridin-5-yl)pyridin-2-amine] | – | – | – | < 100 | − (− indicates <500) |
| Nc1ncc(-c2cnc3[nH]cc(-c4ccc5[nH]ccc5c4)c3c2)cn1 [Example 9, 5-(3-(1H-indol-5-yl)-1H-pyrrolo[2,3-b]pyridin-5-yl)pyrimidin-2-amine] | – | – | – | < 100 | + (+ indicates ≧500) |
| COc1cc(-c2cnc3[nH]cc(-c4cnc(N)nc4)c3c2)cc(OC)c1OC [Example 17, 5-(5-(3,4,5-trimethoxyphenyl)-1H-pyrrolo[2,3-b]pyridin-3-yl)pyrimidin-2-amine] | – | – | – | < 100 | − (− indicates <500) |
| COc1cc(-c2cnc3[nH]cc(-c4ccc(N)nc4)c3c2)cc(OC)c1OC [Example 18, 5-(5-(3,4,5-trimethoxyphenyl)-1H-pyrrolo[2,3-b]pyridin-3-yl)pyridin-2-amine] | – | – | – | < 100 | − (− indicates <500) |
